Assay [1] in a line: A cytotoxicity screen of small molecule inhibitors of the PhoP region in Salmonella typhi identified in the primary screen. [Related pubchem assays: 1850, 1864, 1985 ]. It is filed as functional.
For assay [2], the target named is FAD-linked sulfhydryl oxidase ALR (Homo sapiens, UniProt P55789). In words: ALR-catalysed DTT oxidation blockers – biochemical, H2O2 detection, luminescence, cherry-pick, dose response (AID 493248).
A further assay has as its target Cytochrome P450 3A4 (Homo sapiens, UniProt P08684). As to conditions: Potency.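 Note: confirmatory qHTS run detecting inhibitors and substrates of CYP3A4.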
For assay [3], the target named is T1, E3 ubiquitin-protein ligase XIAP (Homo sapiens, UniProt P98170). Description: Counter Screen using XIAP-Bir3 for Chemical Antagonists of Bir1/2 domains of IAP-family anti-apoptotic proteins. [Related pubchem assays (depositor defined):AID1018, AID1449, AID1514, AID1638, AID1749, AID1750, AID488957, AID488963]. For orientation: The purpose of a counterscreen is to sort out artefacts and off-target activity.

Assay [4] concerns the target T1, E3 ubiquitin-protein ligase XIAP. In words: small molecules displacing peptide from XIAP – biochemical, IAP family, fluorescence polarization (AID 1018). It is filed as functional. On the technique in general: Fluorescence polarisation rises when a labelled molecule tumbles more slowly, as on binding a larger partner.
For assay [5], the target named is Dual specificity tyrosine-phosphorylation-regulated kinase 1A (Rattus norvegicus, UniProt Q63470). Type of assay: biochemical, Homo sapiens.
Assay [6] has as its target DNA dC->dU-editing enzyme APOBEC-3G (Homo sapiens, UniProt Q9HC16). In words: Dose Response confirmation of small molecule APOBEC3G DNA Deaminase Inhibitors via a fluorescence-based single-stranded DNA deaminase assay. [Related pubchem assays (depositor defined):AID493012, AID493028]. It is filed as functional.
In the next assay the target is Prothrombin (Homo sapiens, UniProt P00734). Description: Thrombin 1536 HTS Dose Response Confirmation. [Related pubchem assays: 1046 (Thrombin 1536 HTS; hits were confirmed in this assay)]. Type of assay: functional.
Another assay has as its target T2, Protein RecA (Mycobacterium tuberculosis, UniProt P9WHJ3).
T2 sequence (P9WHJ3 whole entry): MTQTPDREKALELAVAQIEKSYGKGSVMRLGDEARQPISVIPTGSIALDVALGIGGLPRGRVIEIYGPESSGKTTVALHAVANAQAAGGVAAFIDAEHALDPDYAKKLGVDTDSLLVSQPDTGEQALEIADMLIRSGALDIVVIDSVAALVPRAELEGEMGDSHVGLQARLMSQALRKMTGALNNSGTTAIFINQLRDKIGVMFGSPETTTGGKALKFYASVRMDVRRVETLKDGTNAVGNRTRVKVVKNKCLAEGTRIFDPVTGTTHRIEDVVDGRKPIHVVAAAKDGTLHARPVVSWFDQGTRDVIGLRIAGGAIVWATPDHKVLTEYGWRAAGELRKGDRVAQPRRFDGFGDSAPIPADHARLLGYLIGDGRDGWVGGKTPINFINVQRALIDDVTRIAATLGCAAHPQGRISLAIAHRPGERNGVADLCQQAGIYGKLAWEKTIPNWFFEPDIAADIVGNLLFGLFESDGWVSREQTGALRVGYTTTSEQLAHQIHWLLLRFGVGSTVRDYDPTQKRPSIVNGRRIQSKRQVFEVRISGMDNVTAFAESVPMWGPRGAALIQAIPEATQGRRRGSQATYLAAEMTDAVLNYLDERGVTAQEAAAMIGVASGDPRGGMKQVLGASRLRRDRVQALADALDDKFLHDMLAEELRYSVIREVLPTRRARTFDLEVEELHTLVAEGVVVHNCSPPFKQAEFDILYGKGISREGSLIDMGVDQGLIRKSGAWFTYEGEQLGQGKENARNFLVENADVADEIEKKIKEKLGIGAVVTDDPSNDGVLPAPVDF
Description: Fluorescence Cell-Free Homogeneous Dose Retest to Identify Inhibitors of RecA-Intein Splicing Activity. [Related pubchem assays (depositor defined):AID2097, AID2223, AID489010, AID492950]. It is filed as functional.

For assay [7], the target named is T3, Replicative DNA helicase DnaB (Mycobacterium tuberculosis, UniProt P9WMR3).
T3 sequence (P9WMR3 whole entry): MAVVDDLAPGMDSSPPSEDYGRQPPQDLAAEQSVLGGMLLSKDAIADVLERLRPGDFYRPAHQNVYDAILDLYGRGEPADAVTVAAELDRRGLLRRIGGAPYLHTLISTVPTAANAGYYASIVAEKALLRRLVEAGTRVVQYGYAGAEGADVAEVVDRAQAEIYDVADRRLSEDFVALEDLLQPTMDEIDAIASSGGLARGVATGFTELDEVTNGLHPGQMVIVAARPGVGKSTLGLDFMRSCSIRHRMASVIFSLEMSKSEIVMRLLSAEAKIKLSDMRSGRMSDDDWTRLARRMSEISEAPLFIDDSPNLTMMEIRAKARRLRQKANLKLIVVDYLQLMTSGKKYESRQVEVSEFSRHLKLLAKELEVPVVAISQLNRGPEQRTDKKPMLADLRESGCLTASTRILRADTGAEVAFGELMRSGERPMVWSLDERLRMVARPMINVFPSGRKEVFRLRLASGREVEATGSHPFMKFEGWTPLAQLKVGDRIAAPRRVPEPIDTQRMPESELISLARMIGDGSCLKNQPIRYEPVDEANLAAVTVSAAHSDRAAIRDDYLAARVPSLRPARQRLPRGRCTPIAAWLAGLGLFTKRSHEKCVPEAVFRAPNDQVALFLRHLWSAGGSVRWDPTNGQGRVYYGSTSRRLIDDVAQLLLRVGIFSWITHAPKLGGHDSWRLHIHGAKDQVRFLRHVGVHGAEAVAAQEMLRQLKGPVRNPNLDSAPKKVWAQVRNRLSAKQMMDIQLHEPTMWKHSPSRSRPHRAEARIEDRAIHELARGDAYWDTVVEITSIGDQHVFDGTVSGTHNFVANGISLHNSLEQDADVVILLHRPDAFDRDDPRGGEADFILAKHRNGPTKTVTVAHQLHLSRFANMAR
Description: DnaB intein splicing inhibitors, dose response, biochemical, cell-free fluorescence (AID 449749). It is filed as functional.

Assay [8] can be described thus: non-specific 3'UTR reporter inhibition in Clone20-Shn3RL – cell-based, Renilla luciferase, cherry-picked, counter-screen for Shn3 inhibitor project, dose response (AID 624133). Type of assay: functional.
The nature of assay [9]: NIH3T3 cell viability loss – ATP luminescence, mouse fibroblasts, counter-screen, dose response (AID 2010).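 Note: cells exposed to compound for about 90 hours before reading.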 It is filed as functional, cell-based.
A short description of assay [10]: reduction of Shn3 3'UTR-driven luciferase in osteoblasts – cell-based, Clone20 osteoblasts, firefly luciferase, cherry-picked, dose response (AID 624132).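 Note: firefly luciferase luminescence from reporter carrying the Shn3 3'UTR in osteoblasts.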 It is filed as functional.
Assay [11] is described as follows: Trypanosoma cruzi growth suppression in host cells – NIH3T3 host cells, beta-gal luminescence, confirmation (AID 2044).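 Note: intracellular parasites grown in NIH/3T3 mouse fibroblasts as host cells; luminescent beta-galactosidase reporter signal from transgenic T. cruzi replicating inside host cells; inhibitors lower the luminescence signal.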 It is filed as functional, cell-based.
A further assay deals with H9c2. In words: cells. It is filed as functional, cell-based. As to conditions: Rattus norvegicus, H9c2, Myocardium.
In assay [12] the target is Glucose-6-phosphate 1-dehydrogenase (Homo sapiens, UniProt P11413). In words: inhibition of Homo sapiens G6PD, dose series – biochemical, fluorescence, selectivity assay for P. falciparum G6PD inhibitor project, dose response (AID 504792). It is filed as functional.
A short description of assay [13]: HEK-293T viability loss after treatment – luminescence, T-cell screen hits, cytotoxicity control for TCR NF-kB inhibitor project, dose response (AID 489026).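 Note: cells exposed to compound about 14 hours before the viability readout.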 Type of assay: functional, cell-based.
The target in assay [14] is Glyceraldehyde-3-phosphate dehydrogenase (Homo sapiens, UniProt P04406).

The results in this text go back to ChEMBL document CHEMBL1201862, “PubChem BioAssay data set” (2004).

Active and inactive are the calls of the source.

For orientation: EC50 means the midpoint of the concentration-response curve. What is called AC50 is the concentration giving half of the maximal activity seen. The term IC50 denotes the concentration at which inhibition is half-maximal.

T1 sequence (P98170 whole entry): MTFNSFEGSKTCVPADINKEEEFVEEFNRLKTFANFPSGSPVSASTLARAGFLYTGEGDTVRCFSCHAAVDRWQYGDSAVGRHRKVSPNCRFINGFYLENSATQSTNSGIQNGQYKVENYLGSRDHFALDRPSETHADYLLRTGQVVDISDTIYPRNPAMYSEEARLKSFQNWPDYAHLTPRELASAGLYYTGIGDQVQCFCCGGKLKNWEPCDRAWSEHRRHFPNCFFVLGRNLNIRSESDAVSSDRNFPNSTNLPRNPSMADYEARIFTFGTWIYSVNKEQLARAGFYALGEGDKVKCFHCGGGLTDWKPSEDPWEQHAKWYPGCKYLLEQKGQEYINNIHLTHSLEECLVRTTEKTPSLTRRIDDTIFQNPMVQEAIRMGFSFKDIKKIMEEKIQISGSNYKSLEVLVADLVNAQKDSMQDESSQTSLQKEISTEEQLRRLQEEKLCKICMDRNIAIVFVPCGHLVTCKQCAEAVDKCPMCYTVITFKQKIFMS
Chain of Cytochrome P450 3A4 (P08684 whole entry): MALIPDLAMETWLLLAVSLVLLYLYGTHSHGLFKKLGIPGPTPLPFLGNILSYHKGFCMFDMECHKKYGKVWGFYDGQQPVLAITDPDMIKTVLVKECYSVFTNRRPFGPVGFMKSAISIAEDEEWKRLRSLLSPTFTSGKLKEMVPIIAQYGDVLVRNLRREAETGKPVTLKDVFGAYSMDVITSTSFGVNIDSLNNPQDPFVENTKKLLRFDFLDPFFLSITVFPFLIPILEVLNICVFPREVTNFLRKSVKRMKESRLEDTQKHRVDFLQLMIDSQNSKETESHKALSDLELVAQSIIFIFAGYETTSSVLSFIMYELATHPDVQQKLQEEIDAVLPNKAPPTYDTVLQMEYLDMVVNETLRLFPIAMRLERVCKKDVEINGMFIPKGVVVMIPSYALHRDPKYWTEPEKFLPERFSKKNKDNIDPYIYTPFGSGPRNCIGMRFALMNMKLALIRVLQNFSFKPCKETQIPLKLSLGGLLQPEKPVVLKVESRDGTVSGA
Chain of Glucose-6-phosphate 1-dehydrogenase (P11413 whole entry): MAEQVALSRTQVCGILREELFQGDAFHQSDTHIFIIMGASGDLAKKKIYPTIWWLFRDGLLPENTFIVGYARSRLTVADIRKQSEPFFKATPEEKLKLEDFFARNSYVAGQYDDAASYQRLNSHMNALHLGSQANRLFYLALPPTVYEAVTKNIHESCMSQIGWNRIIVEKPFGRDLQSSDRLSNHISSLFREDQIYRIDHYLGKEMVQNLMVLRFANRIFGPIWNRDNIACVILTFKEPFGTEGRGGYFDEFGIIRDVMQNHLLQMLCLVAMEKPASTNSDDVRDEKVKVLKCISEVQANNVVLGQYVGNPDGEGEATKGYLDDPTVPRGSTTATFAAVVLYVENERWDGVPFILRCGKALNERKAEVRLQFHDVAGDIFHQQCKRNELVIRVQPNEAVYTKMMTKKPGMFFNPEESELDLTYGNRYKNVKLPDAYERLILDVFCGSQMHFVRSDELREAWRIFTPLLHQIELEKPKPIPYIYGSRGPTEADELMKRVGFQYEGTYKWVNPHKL
Chain of DNA dC->dU-editing enzyme APOBEC-3G (Q9HC16 whole entry): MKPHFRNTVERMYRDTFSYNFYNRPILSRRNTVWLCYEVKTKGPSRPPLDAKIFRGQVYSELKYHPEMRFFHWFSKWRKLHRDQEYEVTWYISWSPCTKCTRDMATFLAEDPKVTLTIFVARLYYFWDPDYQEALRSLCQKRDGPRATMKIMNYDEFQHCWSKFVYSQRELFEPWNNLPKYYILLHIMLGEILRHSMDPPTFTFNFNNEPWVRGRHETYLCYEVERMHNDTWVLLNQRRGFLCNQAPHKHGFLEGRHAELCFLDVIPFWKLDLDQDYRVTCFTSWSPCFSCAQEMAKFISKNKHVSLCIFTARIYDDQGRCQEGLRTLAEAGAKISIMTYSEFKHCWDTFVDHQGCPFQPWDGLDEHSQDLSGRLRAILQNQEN
Chain of Glyceraldehyde-3-phosphate dehydrogenase (P04406 whole entry): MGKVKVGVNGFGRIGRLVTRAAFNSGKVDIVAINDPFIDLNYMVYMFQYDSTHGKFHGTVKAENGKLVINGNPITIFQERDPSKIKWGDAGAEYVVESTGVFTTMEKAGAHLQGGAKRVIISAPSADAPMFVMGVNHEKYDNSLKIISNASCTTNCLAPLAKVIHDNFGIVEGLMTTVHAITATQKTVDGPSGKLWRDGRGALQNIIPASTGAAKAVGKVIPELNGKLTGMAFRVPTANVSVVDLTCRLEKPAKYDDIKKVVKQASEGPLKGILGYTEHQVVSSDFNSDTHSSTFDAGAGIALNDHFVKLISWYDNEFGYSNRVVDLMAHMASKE
Chain of FAD-linked sulfhydryl oxidase ALR (P55789 whole entry): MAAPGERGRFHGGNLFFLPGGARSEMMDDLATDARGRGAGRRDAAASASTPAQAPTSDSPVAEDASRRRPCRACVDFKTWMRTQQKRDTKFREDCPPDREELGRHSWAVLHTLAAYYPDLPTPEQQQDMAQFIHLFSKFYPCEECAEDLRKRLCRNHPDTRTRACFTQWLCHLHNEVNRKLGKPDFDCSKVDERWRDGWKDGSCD

For the molecule `Cc1ccc(S(=O)(=O)NNc2ccccc2)c(C)c1`, in assay [1], the EC50 was > 50 µM (active). Besides, in assay [2], the AC50 is 0.319 µM (active).
`O=C(/C=C/c1ccccc1Cl)Nc1cccc(O)c1`: the EC50 in [1] was > 50 µM (active).
The same measure, in the same setting: the same measure for `Cc1cccn2c(=O)c3cc(C(=O)NCC4CCCO4)c(=N)n(C4CCCC4)c3nc12` (stereo unspecified): > 50 µM (active).
As for `COc1ccc(-c2coc3ccc(OC4OC(COC(C)=O)C(OC(C)=O)C(OC(C)=O)C4OC(C)=O)c(OC(C)=O)c3c2=O)cc1` (stereo unspecified), the AC50 on Cytochrome P450 3A4 was 15.8 µM (inconclusive).
`S=C([S-])NCCNC(=S)[S-].[Zn+2]`: the AC50 at Cytochrome P450 3A4 was 25.1 µM (inconclusive).
For `CCOC(=O)CCc1c(C)c2ccc(O)cc2oc1=O`, the values for the IC50 in assay [3] and in [4] were > 100 µM (inactive) and > 100 µM (not active), respectively.
In the case of `O=S1(=O)CC2N=C(N(Cc3c(F)cccc3Cl)c3ccccc3F)SC2C1` (stereo unspecified), the IC50 in [3] is > 100 µM (inactive); in assay [4], > 100 µM (not active).
`CSc1cccc(NC(=O)c2c(Cl)cnn2C)c1`: in assay [5], the AC50 is 7.08 µM (active).
`COc1ccc(C(=O)Nc2nc(-c3cccs3)c(NC(C)=O)s2)cc1`: the figures for the IC50 in assay [3] and in assay [4] were > 100 µM (inactive) and > 100 µM (not active), respectively.
Turning to `CCn1/c(=N/c2ccc(N3CCOCC3)cc2)ccc2ccccc21`, the IC50 in [3] is > 100 µM (inactive); in assay [4], > 100 µM (not active).
For the molecule `Cc1nc([N+](=O)[O-])c(SCc2ccc(O)c([N+](=O)[O-])c2)[nH]1`, in assay [6], the half-inhibitory concentration (IC50) was 77.9 µM (active).
As to `CSc1nc(-c2ccccc2)nn1C(=O)c1ccc(Cl)cc1`, the IC50 on Prothrombin is 0.725 µM (active). The EC50 at Protein RecA was 44.3 µM (active). Moreover, the AC50 in assay [7] is 4.38 µM (active).
Regarding `O=C(Nc1cc2c3c(c1)C1CCCC1CN3CC1CCCC21)c1ccc([N+](=O)[O-])cc1` (stereo unspecified), the IC50 against Prothrombin was > 50 µM (not active). Besides, the results for the AC50 in assay [8] and in assay [10] were 4.88 µM (active) and 2.2 µM (active), respectively. Also, the concentration for a half-maximal effect (EC50) was > 60 µM (inconclusive) in assay [9] and 1.07 µM (active) in assay [11].
On to `Cc1c(O)c(O)cc2c1oc1c3ccccc3oc(=O)c21`, for which the AC50 at Cytochrome P450 3A4 is 20 µM (inconclusive).
`O=C(Nc1cc(S(=O)(=O)N2CCOCC2)ccc1N1CCCCC1)c1cc(-c2ccccn2)nc2ccccc12`: the IC50 in the assay with H9c2 is > 79 µM (inactive); in [6] it was 92.6 µM (active).
For `CCN(CC)C(=O)c1c(C)[nH]c(=S)c(C#N)c1-c1ccco1`, the IC50 in assay [12] is > 80 µM (inactive).
With `CCOc1ccc(NC(=O)c2ccc(N)cc2)cc1`, the EC50 in assay [1] was > 50 µM (active).
On to `Cc1ccc(S(=O)(=O)N(C)C)cc1NC(=S)NC12CC3CC(CC(C3)C1)C2`, for which the IC50 was > 100 µM (inactive) in assay [3] and > 100 µM (not active) in assay [4].
For the molecule `CCOC(=O)c1[nH]c2c(c1C)C(=O)CC(c1ccc(F)cc1)C2` (stereo unspecified), the IC50 in [13] was > 80 µM (inactive).
`CCCCCCCOc1ccc(OC(=O)c2cccnc2)cc1`: the 50% effective concentration (EC50) in assay [9] is 4.45 µM (active); in [11] it was 1.89 µM (active). In addition, the IC50 in assay [13] is > 80 µM (inactive).
As to `Cc1cc(C)n(/N=C/c2cc([N+](=O)[O-])ccc2O)c(=O)c1`, the EC50 in assay [1] was > 50 µM (active).
On to `Cc1cc(C)nc(/N=C(\N)NCCc2ccccc2)n1`, for which the IC50 in assay [12] is > 80 µM (inactive).
For `C=C(CC(=O)OC)C[C@]1(CC(=O)OC)CC2(CC=C(C)C)C(=O)C(C(=O)c3ccccc3)=C(OC(=O)c3ccc(Br)cc3)C(CC=C(C)C)(C1)C2=O` (stereo partly specified), the AC50 on Cytochrome P450 3A4 was 3.16 µM (inconclusive).
As for `O=[N+]([O-])c1ccc(O)c(/C=N/n2c(S)nnc2-c2ccccc2)c1`, the AC50 in [5] is 7.9 µM (active).
With `CCCn1c(C)nc2c(N3CCOCC3)nc(C)nc21`, on Cytochrome P450 3A4, the concentration at half-maximal activity (AC50) was 7.94 µM (inconclusive).
Consider `O=C(O)CSc1nc2ccc(Br)cc2o1`, for which the IC50 in assay [14] is on record as > 100 µM (not active).
